Here are results for nine molecules from PubChem BioAssay (NCI).

Molecules are shown by their SMILES.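 Exposure lasted 48 hours, with cells grown in 96-well plates and compounds tested at five concentrations. At the GI50, growth is halved. At the TGI there is no net growth.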

Holding throughout (test): DTP human tumour cell line panel, 48 h
The test system of test [1] is SR leukemia.
The test system of test [2] is CCRF-CEM leukemia.
Test [3] relates to SF-539 CNS.
Test [4] deals with ACHN renal.
The test system of test [5] is IGROV1 ovarian.
For test [6], the system named is SNB-75 CNS.
In test [7] the test system is HCT-116 colon.
Test [8] deals with OVCAR-8 ovarian.
For test [9], the system named is HCC-2998 colon.
For test [10], the system named is OVCAR-5 ovarian.

Consider `CC(C)C/C(CC(=O)CCC(=O)Nc1ccccc1[N+](=O)[O-])=N\NC(=O)c1cc2ccccc2cc1O`, for which the TGI – broadly, the concentration giving total growth inhibition – was greater than 100 µM in [1]; 59.6 µM in test [2]; 82.3 µM in [3]; greater than 100 µM in test [4]; greater than 100 µM in [5]; greater than 100 µM in [6]. Also, the total growth inhibition concentration (TGI) in test [7] was greater than 100 µM; in test [8], 95.8 µM; in [9], greater than 100 µM; in test [10] it was greater than 100 µM.
For `COC1=CC(c2ccc[nH]2)=N/C1=C\c1[nH]c(C)c(C(=O)OC(C)C)c1C`, the GI50 (in general, the concentration at which growth is held to half of that of the control) is 0.0257 µM in test [1]; 0.0316 µM in test [2]; 0.069 µM in test [3]; 0.0456 µM in test [4]; 0.0535 µM in [5]; 0.0805 µM in [6]. The concentration for 50% growth inhibition (GI50) in test [7] is 0.0274 µM; in test [8], 0.0397 µM; in test [9], 0.0485 µM; in [10], 0.144 µM. Also, the TGI in [1] is 0.291 µM; in [2], greater than 100 µM; in test [3], 1.53 µM; in test [4], 1.2 µM; in test [5], 1.62 µM; in [6], 1.96 µM. In addition, the TGI in [7] worked out at 1.07 µM; in test [8] it was 1.04 µM; in test [9], 1.36 µM; in [10] it was 1.95 µM.
For `CC/C=C\CCC/C=C1/C(=O)C=C[C@@H]1C/C=C\CCCC(=O)OC`, the GI50 in [1] is 2.73 µM; in test [2] it was 2.57 µM; in [3], 3.49 µM; in [4] it was 2.13 µM; in [5] it was 3.3 µM; in test [6], 13.7 µM. Besides, the GI50 in [7] was 2.44 µM; in test [8], 3.71 µM; in test [9], 2.3 µM; in [10], 5.28 µM. Besides, the TGI in test [1] stood at 9.22 µM; in [2], 8.32 µM; in [3], 12.9 µM; in test [4] it was 4.43 µM; in test [5] it was 11.5 µM; in test [6], 28.5 µM. Further, the concentration for total growth inhibition (TGI) in test [7] stood at 4.95 µM; in test [8] it was 12.8 µM; in test [9] it was 4.02 µM; in test [10], 17.6 µM.
On to `COC1=CC(=O)c2nc(-c3ccncc3)[nH]c2C1=O`, for which the GI50 in test [1] was greater than 100 µM; in test [2] it was greater than 100 µM; in test [3], greater than 100 µM; in test [4] it was greater than 100 µM; in test [5], greater than 100 µM; in [6] it was 88.3 µM. The GI50 in [7], in [8], in test [9] and in test [10] was greater than 100 µM in each case. The TGI in test [1], in [2], in test [3], in test [4], in test [5] and in test [6] was greater than 100 µM each time. Also, the TGI in [7], in test [8], in test [9] and in [10] was greater than 100 µM in each case.
As to `Cn1cnc([N+](=O)[O-])c1Sc1nnc(-c2cccnc2)n1C`, the TGI in test [1] was 45.5 µM; in [2], 45 µM; in test [3], 55.2 µM; in test [4], 36.7 µM; in test [5], greater than 100 µM; in test [6] it was greater than 100 µM. Besides, the TGI in test [7] is 40.1 µM; in test [8] it was 59.7 µM; in test [9], 67.1 µM; in [10], greater than 100 µM.
As for `NC(=O)c1cccc2cn(-c3ccc([C@@H]4CCCNC4)cc3)nc12`, the GI50 was 1.94 µM in [1]; 5.54 µM in [2]; 6.72 µM in [3]; 12.4 µM in test [4]; 15.3 µM in [5]; 11.8 µM in [6]. Besides, the GI50 in test [7] is 10.8 µM; in test [8], 12.4 µM; in test [9] it was 14.1 µM; in test [10] it was 24 µM. Further, the TGI turned out to be 12.5 µM in test [1]; 97.7 µM in [2]; 20.4 µM in [3]; 25.9 µM in [4]; 52.3 µM in [5]; 25.5 µM in test [6]. In addition, the TGI came out at 25.1 µM in [7], 38.5 µM in test [8], 34.3 µM in [9] and 64.8 µM in test [10].
For the molecule `CCOc1ccc(NC(=O)C(=O)CC(=O)c2c[n+](=O)c3cc(C)c(C)cc3n2[O-])cc1`, the TGI in test [1], in test [2], in test [3], in test [4], in [5] and in test [6] was greater than 100 µM throughout. Besides, the TGI in [7], in test [8], in test [9] and in test [10] was greater than 100 µM in each case.
In the case of `c1ccc2cc(-c3cc(-c4cc(-c5ccc6ccccc6c5)on4)no3)ccc2c1`, the TGI in test [1], in [2], in [3], in test [4], in [5] and in test [6] was greater than 100 µM throughout. Besides, the TGI in [7], in [8], in test [9] and in test [10] was greater than 100 µM each time.
`COC(CN1C(=O)c2cccc3cccc(c23)C1=O)OC`: the TGI in test [1], in [2], in [3], in test [4], in [5] and in [6] was greater than 100 µM in each case. Moreover, the TGI in test [7], in test [8], in test [9] and in [10] was greater than 100 µM in each case.
